# Tests used:
# Format in all cases: physicochemical
# [1] = Solubility in ethanol
# [2] = Particle size of creatine adhered on PVP nano fiber, by scanning electron microscope; conditions: SEM, FIG. 1
# Excerpt: A commercially available electrospinning apparatus (HSP-30K-2 manufactured by Nippon Stabilizer Industry Co., Ltd.) was used, voltage (direct current of 15 kV) was applied between (the distance being 20 cm) a nozzle and an aluminum foil (manufactured by Mitsubishi Aluminum Company, Ltd.) on which a cotton mat (manufactured by Asahi Kasei Corporation) is placed attached to a collector of the apparatus and a 10 wt % ethanolic solution of polyvinylpyrrolidone (PVP) was sprayed at ambient temperature from the nozzle onto the cotton mat to form a matrix comprising a nano fiber of PVP on the surface of the cotton mat. A fiber diameter of the nano fiber of PVP constituting the matrix was measured by using a scanning electron microscope (SEM JSM-5400 manufactured by JOEL Ltd.) and found to be from 300 to 700 nm. The cotton mat where a matrix comprising a nano fiber of PVP was formed on the surface was attached onto a filter of a commercially available spray-drying apparatus (Buchi Mini Spray Drier B-290 manufactured by Nihon BUCHI K.K.) and a 1 wt % aqueous solution of creatine was spray-dried onto the matrix (outlet temperature of the nozzle: 180° C.; aspirator speed: 35%; pump speed: 5%) to give a cotton mat where a matrix comprising a nano fiber of PVP in which creatine particles were adhered on the surface was formed on the surface. As will be apparent from FIG. 1, the particle size of creatine adhered on the surface of the nano fiber of PVP was about 2 μm at the largest and many of the particles were in a size of from 100 nm to smaller than 1 μm.
# [3] = Exposure of the cotton mat to air stream similar to human inspiration, SEM picture after exposure
# Method: The cotton mat where the matrix comprising the nano fiber of PVP in which creatine particles were adhered on the surface was formed on the surface was exposed for 1 minute in air stream having the similar degree as human inspiration (velocity is 5 L/minute). A picture of the cotton mat after exposure taken under a scanning electron microscope (the same one as mentioned already) is shown in FIG. 2.
# [4] = spray-dried onto PVP nano fiber matrix on cotton mat
solubility in ethanol [1],"particle size of creatine adhered on the surface of the nano fiber of PVP, at the largest ([2]; spray-dried from 1 wt % aqueous solution onto PVP nano fiber matrix on cotton mat)","particle size, many of the particles, lower limit [2, 4]","particle size, many of the particles, upper limit [2, 4]","stability of nano- to micron-size particles in air ([3]; adhered on PVP nano fiber matrix, no dispersing solvent)","detachment of particles adhered on the nano fiber of PVP ([3]; air stream 5 L/minute, 1 minute, SEM, FIG. 2)",Compound
hardly soluble,–,–,–,–,–,"O=c1c2ccccc2[se]n1-c1ccccc1 [Ebselen, 2-phenyl-1,2-benzoisoselenazol-3-(2H)-one]"
–,about 2 μm,≥ 100 nm,smaller than 1 μm,stably retained even in air,detached by air stream,CN(CC(=O)O)C(=N)N [creatine]
